For test [1], the target named is C-C chemokine receptor type 5 (Homo sapiens, UniProt P51681). In kind it is cell membranes, HEK293, Membrane. To be noted: hek293. Also: in other assays of this panel Not Active means under 50% inhibition at 10 µM.
In another test the target is T1, Calcitonin receptor (Homo sapiens, UniProt P30988). Also: in other assays of this panel Not Active means under 50% inhibition at 10 µM.
T1 sequence (P30988 whole entry): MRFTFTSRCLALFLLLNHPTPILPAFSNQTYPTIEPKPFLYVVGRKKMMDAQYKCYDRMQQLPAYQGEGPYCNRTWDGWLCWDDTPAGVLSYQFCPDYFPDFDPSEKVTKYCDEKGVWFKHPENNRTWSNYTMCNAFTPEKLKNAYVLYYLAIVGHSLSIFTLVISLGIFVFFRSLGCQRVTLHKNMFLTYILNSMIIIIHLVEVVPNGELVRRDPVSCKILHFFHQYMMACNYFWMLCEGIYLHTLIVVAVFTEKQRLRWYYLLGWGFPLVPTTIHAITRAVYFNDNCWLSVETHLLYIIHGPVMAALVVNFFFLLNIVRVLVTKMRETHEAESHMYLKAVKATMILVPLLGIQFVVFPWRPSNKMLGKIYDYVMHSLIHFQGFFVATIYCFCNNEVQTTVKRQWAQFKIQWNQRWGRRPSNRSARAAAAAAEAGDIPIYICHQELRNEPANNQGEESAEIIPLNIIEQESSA
The format is cell membranes, Membrane. As to conditions: t47d.

Test [2] addresses Mitogen-activated protein kinase 1 (Homo sapiens, UniProt P28482). Description: DRUGMATRIX: Protein Serine/Threonine Kinase, ERK2 enzyme inhibition (substrate: Myelin Basic Protein). On the set-up: species or system Escherichia coli. As to conditions: Not Active = under 50% inhibition at 10 µM.
For the next test, the target named is Carbonic anhydrase 2 (Homo sapiens, UniProt P00918). Kind of test: DRUGMATRIX: Carbonic Anhydrase II enzyme inhibition (substrate: 4-Nitrophenyl acetate (4-NPA)). The format is tissue-based, Erythrocyte. As to conditions: erythrocyte; Not Active = under 50% inhibition at 10 µM.
The target of test [3] is T2, Muscarinic acetylcholine receptor M4 (Homo sapiens, UniProt P08173). Also: in other assays of this panel Not Active means under 50% inhibition at 10 µM.
T2 sequence (P08173 whole entry): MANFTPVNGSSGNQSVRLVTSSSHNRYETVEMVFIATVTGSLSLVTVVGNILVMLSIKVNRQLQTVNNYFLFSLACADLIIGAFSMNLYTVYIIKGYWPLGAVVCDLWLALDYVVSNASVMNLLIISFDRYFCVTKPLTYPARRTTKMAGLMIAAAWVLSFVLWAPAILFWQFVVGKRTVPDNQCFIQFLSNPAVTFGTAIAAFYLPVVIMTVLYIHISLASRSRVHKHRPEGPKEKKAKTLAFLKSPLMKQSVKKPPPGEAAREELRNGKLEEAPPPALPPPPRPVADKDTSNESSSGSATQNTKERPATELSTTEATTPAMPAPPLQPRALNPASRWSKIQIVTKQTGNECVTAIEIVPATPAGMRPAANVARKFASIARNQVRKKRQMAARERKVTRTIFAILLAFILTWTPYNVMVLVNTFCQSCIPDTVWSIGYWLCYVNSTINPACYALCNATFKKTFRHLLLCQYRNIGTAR
The format is cell membranes, CHO-K1, Membrane.

Another test addresses T3, Adenosine receptor A1 (Homo sapiens, UniProt P30542).
T3 sequence (P30542 whole entry): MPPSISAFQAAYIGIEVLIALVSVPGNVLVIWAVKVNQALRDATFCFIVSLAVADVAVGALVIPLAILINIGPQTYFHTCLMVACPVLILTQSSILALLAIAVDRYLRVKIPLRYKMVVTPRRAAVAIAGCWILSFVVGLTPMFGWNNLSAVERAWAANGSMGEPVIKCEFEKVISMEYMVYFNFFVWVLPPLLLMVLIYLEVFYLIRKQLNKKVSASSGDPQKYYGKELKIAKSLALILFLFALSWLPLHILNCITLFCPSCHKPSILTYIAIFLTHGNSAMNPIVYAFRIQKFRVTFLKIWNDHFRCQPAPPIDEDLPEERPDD
In kind it is cell membranes, CHO, Membrane. As to conditions: cho.

In a further test the target is T4, Androgen receptor (Rattus norvegicus, UniProt P15207). Also: in other assays of this panel Not Active means under 50% inhibition at 10 µM.
T4 sequence (P15207 whole entry): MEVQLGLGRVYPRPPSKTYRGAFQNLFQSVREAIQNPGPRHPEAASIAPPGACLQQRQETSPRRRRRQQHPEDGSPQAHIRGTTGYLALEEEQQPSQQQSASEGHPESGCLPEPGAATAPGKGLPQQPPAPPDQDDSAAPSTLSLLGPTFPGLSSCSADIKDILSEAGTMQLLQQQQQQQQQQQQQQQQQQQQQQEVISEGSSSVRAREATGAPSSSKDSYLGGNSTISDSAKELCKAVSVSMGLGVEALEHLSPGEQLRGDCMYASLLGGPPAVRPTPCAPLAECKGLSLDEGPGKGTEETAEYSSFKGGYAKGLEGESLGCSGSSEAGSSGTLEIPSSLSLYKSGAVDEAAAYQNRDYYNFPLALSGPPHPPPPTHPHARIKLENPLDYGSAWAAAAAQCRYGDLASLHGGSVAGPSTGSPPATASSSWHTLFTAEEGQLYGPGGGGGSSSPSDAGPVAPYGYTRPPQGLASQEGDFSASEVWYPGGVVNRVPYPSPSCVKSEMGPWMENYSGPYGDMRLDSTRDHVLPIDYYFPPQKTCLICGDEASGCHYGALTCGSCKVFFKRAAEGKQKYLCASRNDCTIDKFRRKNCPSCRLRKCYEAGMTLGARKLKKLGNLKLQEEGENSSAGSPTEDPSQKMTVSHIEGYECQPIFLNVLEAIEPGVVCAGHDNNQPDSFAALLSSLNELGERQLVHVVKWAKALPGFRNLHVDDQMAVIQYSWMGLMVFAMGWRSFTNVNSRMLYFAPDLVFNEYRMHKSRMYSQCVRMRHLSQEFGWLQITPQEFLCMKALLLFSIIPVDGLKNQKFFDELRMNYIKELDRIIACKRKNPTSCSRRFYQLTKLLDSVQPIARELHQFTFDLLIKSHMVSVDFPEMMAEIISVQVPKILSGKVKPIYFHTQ

This note sets out measurements from ChEMBL document CHEMBL1909046, “DrugMatrix in vitro pharmacology data”.

Sequence of Mitogen-activated protein kinase 1 (P28482 whole entry): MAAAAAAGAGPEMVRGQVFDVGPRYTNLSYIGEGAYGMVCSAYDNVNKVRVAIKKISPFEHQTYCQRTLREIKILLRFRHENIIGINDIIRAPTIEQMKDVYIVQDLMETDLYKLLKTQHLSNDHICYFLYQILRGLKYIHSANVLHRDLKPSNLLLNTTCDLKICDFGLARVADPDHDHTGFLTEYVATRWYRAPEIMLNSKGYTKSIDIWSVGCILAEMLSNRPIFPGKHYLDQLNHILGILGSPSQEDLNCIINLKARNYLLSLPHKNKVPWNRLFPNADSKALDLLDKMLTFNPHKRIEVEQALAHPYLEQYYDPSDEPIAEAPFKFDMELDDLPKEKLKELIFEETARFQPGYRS
Sequence of C-C chemokine receptor type 5 (P51681 whole entry): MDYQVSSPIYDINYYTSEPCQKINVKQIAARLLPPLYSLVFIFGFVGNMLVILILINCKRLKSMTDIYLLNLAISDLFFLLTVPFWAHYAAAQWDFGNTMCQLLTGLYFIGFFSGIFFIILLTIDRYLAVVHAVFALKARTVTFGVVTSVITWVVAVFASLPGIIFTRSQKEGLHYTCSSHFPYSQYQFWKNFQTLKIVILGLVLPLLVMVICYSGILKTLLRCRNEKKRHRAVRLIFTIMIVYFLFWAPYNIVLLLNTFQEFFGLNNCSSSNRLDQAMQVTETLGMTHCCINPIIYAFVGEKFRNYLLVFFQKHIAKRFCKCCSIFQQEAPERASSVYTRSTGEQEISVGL

`C[N+](C)(C)CCOC(N)=O.[Cl-]` [CARBACHOL]: the IC50 entry (in test [1]; at Calcitonin receptor; in test [2]; on Carbonic anhydrase 2; in test [3] (cho-k1); at Adenosine receptor A1) was “Not Active” in each case. The IC50 entry at Androgen receptor was “Not Active”.

`C[C@]12CC[C@@H](O)C[C@@H]1CC[C@@H]1[C@@H]2CC[C@]2(C)C(=O)CC[C@@H]12` [ANDROSTERONE]: the IC50 result (in test [1]; on Calcitonin receptor; in test [2]; at Carbonic anhydrase 2; in test [3] (cho-k1); against Adenosine receptor A1) was “Not Active” throughout. For the same compound, at Androgen receptor, the IC50 result was “Not Active”.

In the case of `C[C@H](C(=O)O)c1ccc2oc(-c3ccc(F)cc3)nc2c1` [FLUNOXAPROFEN], the IC50 entry (in test [1]; at Calcitonin receptor; in test [2]; against Carbonic anhydrase 2; in test [3] (cho-k1); on Adenosine receptor A1) was “Not Active” throughout. Besides, the IC50 result on Androgen receptor is “Not Active”.

Turning to COPPER(II) OXIDE, the IC50 result (in test [1]; on Calcitonin receptor; in test [2]; against Carbonic anhydrase 2; in test [3] (cho-k1); against Adenosine receptor A1) was “Not Active” each time. Also, the IC50 result against Androgen receptor is “Not Active”. The Ki entry (in test [1]; on Calcitonin receptor; in test [2]; on Carbonic anhydrase 2; in test [3] (cho-k1); at Adenosine receptor A1) was “Not Active” in each case. In addition, the Ki entry on Androgen receptor was “Not Active”.

`O=C(O)COC(=O)Cc1ccccc1Nc1c(Cl)cccc1Cl` [ACECLOFENAC]: the IC50 result in test [1] was “Not Active”; at Calcitonin receptor, “Not Active”; in test [2] (read-out: IC50), 5930 nM; on Carbonic anhydrase 2, “Not Active”; in test [3] (cho-k1), “Not Active”; at Adenosine receptor A1 it was “Not Active”. The IC50 entry at Androgen receptor is “Not Active”.

Take `COc1cc(/C=C/C(=O)O)ccc1O` [FERULATE]: the IC50 entry (in test [1]; on Calcitonin receptor; in test [2]; against Carbonic anhydrase 2; in test [3] (cho-k1); against Adenosine receptor A1) was “Not Active” throughout. Moreover, on Androgen receptor, the IC50 entry is reported as “Not Active”.

For the compound `O=c1[nH]c2ccccc2c2ccccc12`, the IC50 entry (in test [1]; at Calcitonin receptor; in test [2]; on Carbonic anhydrase 2; in test [3] (cho-k1); at Adenosine receptor A1) was “Not Active” throughout. The IC50 entry against Androgen receptor is listed as “Not Active”.

On to `COc1ccccc1OCCNCC(O)COc1cccc2[nH]c3ccccc3c12` (stereo not drawn) [CARVEDILOL], for which the IC50 result (in test [1]; on Calcitonin receptor; in test [2]; on Carbonic anhydrase 2; in test [3] (cho-k1); against Adenosine receptor A1) was “Not Active” each time. The IC50 entry against Androgen receptor is “Not Active”.

For the compound `OC[C@H]1O[C@@H]2O[C@H]3[C@H](O)[C@@H](O)[C@@H](O[C@H]4[C@H](O)[C@@H](O)[C@@H](O[C@H]5[C@H](O)[C@@H](O)[C@@H](O[C@H]6[C@H](O)[C@@H](O)[C@@H](O[C@H]7[C@H](O)[C@@H](O)[C@@H](O[C@H]8[C@H](O)[C@@H](O)[C@@H](O[C@H]1[C@H](O)[C@H]2O)O[C@@H]8CO)O[C@@H]7CO)O[C@@H]6CO)O[C@@H]5CO)O[C@@H]4CO)O[C@@H]3CO` [BETADEX], the IC50 entry (in test [1]; on Calcitonin receptor; in test [2]; against Carbonic anhydrase 2; in test [3] (cho-k1); against Adenosine receptor A1) was “Not Active” in each case.

For `COc1ccc(Cl)cc1C(=O)NCCc1ccc(S(=O)(=O)NC(=O)NC2CCCCC2)cc1` [GLYBURIDE], the IC50 entry (in test [1]; at Calcitonin receptor; in test [2]; against Carbonic anhydrase 2; in test [3] (cho-k1); against Adenosine receptor A1) was “Not Active” throughout.

With `COC(=O)Nc1nc2ccc(Sc3ccccc3)cc2[nH]1` [FENBENDAZOLE], the IC50 entry (in test [1]; on Calcitonin receptor; in test [2]; against Carbonic anhydrase 2; in test [3] (cho-k1); against Adenosine receptor A1) was “Not Active” in each case.

Take `CNC[C@H](O)c1ccc(O)c(O)c1` [EPINEPHRINE]: the 50% inhibitory concentration (IC50) entry (in test [1]; at Calcitonin receptor; in test [2]; at Carbonic anhydrase 2; in test [3] (cho-k1); at Adenosine receptor A1) was “Not Active” each time.

On to `C=CCO` [ALLYL ALCOHOL], for which the IC50 result (in test [1]; at Calcitonin receptor; in test [2]; at Carbonic anhydrase 2; in test [3] (cho-k1); against Adenosine receptor A1) was “Not Active” throughout.

Regarding `Cc1ccnc2c1NC(=O)c1cccnc1N2C1CC1` [NEVIRAPINE], the IC50 entry (in test [1]; on Calcitonin receptor; in test [2]; against Carbonic anhydrase 2; in test [3] (cho-k1); at Adenosine receptor A1) was “Not Active” each time.

For `NCC(CC(=O)O)c1ccc(Cl)cc1` (stereo not drawn) [BACLOFEN], the IC50 entry (in test [1]; on Calcitonin receptor; in test [2]; at Carbonic anhydrase 2; in test [3] (cho-k1); against Adenosine receptor A1) was “Not Active” each time.

Take `CO[C@H]1O[C@@H]2O[C@@]3(C)CC[C@H]4[C@H](C)CC[C@@H]([C@H]1C)[C@@]24OO3`: the 50% inhibitory concentration (IC50) result (in test [1]; at Calcitonin receptor; in test [2]; on Carbonic anhydrase 2; in test [3] (cho-k1); against Adenosine receptor A1) was “Not Active” throughout.

Turning to `CC(CN1c2ccccc2Sc2ccccc21)N(C)C` (stereo not drawn) [PROMETHAZINE], the IC50 entry is “Not Active” in test [1]; “Not Active” on Calcitonin receptor; “Not Active” in test [2]; “Not Active” against Carbonic anhydrase 2; 7.58 nM in test [3] (read-out: IC50); “Not Active” against Adenosine receptor A1. Moreover, the Ki in test [3] (read-out: Ki) amounted to 1.06 nM.

In general, IC50 refers to the concentration that gives 50% inhibition. What is called Ki is a dissociation constant, usually derived from enzyme kinetics or from competition with a known ligand.
